Assays:
[1] = test system: primary human mesenchymal stem cells (hMSCs); assay: Tenocyte differentiation screening in hMSCs (SCXA-positive cells, 4 days); type: cell-based; conditions: 96 h, fold change over DMSO
Outline: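 Primary hMSCs at passage 3–6 were treated with compound, fixed and immunostained for SCXA, and SCXA-positive cells per well were counted by imaging. Counts were normalized to DMSO wells as fold change, averaged over triplicates, and EC50 was fitted, with high-dose values manually corrected for solubility.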

[2] = test system: Wnt-responsive promoter driving firefly luciferase in SW480 cells; assay: Wnt reporter (SP5 promoter-luciferase) screening assay in SW480 cells; type: cell-based; conditions: Homo sapiens, 24-40 h, top concentration ten micromolar
Outline: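 SW480 (APC-mutant colon) cells stably transduced with lentiviral SP5-promoter (eight TCF/LEF sites) firefly luciferase, ~10,000 cells/well. Signals normalized to DMSO controls for EC50 fitting.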

EC50 [1] [µM] | EC50 [2] [µM] | Compound
6.08 | 2.65 | O=C(NC1CCCCC1)c1n[nH]c2ccc(-c3cncc(CN4CCCCC4)c3)cc12 [compound 77, N-Cyclohexyl-5-(5-(piperidin-1-ylmethyl)pyridin-3-yl)-1H-indazole-3-carboxamide]
> 100 | 0.067 | CN1CCN(Cc2cncc(NC(=O)c3n[nH]c4ccc(-c5cncc(CN6CCCCC6)c5)cc34)c2)CC1 [compound 124, N-(5-((4-Methylpiperazin-1-yl)methyl)pyridin-3-yl)-5-(5-(piperidin-1-ylmethyl)pyridin-3-yl)-1H-indazole-3-carboxamide]
> 100 | 0.077 to 0.142 | O=C(Nc1cnccn1)c1n[nH]c2ccc(-c3cncc(CN4CCCCC4)c3)cc12 [compound 81, 5-(5-(Piperidin-1-ylmethyl)pyridin-3-yl)-N-(pyrazin-2-yl)-1H-indazole-3-carboxamide]
> 100 | 0.038 | O=C(NC1CCCC1)c1ccc(NC(=O)c2n[nH]c3ccc(-c4cccnc4)cc23)cn1 [compound 181, N-(6-(Cyclopentylcarbamoyl)pyridin-3-yl)-5-(pyridin-3-yl)-1H-indazole-3-carboxamide]
> 100 | 0.297 | O=C(Nc1ccc(O)nc1)c1n[nH]c2ccc(-c3cncc(CN4CCCCC4)c3)cc12 [compound 178, N-(6-Hydroxypyridin-3-yl)-5-(5-(piperidin-1-ylmethyl)pyridin-3-yl)-1H-indazole-3-carboxamide]

More lines, now with the values behind:

Compound | EC50 [1] [µM] | EC50 [2] [µM]
O=C(Nc1ccnnc1)c1n[nH]c2ccc(-c3cncc(CN4CCCCC4)c3)cc12 [compound 75, 5-(5-(Piperidin-1-ylmethyl)pyridin-3-yl)-N-(pyridazin-4-yl)-1H-indazole-3-carboxamide] | 12.4 | 0.04
CCOc1ccc(NC(=O)c2n[nH]c3ccc(-c4cncc(CN5CCCCC5)c4)cc23)cn1 [compound 45, N-(6-Ethoxypyridin-3-yl)-5-(5-(piperidin-1-ylmethyl)pyridin-3-yl)-1H-indazole-3-carboxamide] | 9.75 | 0.11
O=C(Nc1ccc(C(F)(F)F)nc1)c1n[nH]c2ccc(-c3cccnc3)cc12 [compound 3, 5-(Pyridin-3-yl)-N-(6-(trifluoromethyl)pyridin-3-yl)-1H-indazole-3-carboxamide] | > 100 | 0.2
CN(C)Cc1cncc(-c2ccc3[nH]nc(C(=O)Nc4ccc(Oc5ccccc5F)nc4)c3c2)c1 [compound 36, 5-(5-((Dimethylamino)methyl)pyridin-3-yl)-N-(6-(2-fluorophenoxy)pyridin-3-yl)-1H-indazole-3-carboxamide] | > 100 | 0.275
O=C(Nc1cccnc1)c1n[nH]c2ccc(-c3cccc(CN4CCCC4)c3)cc12 [compound 49, N-(Pyridin-3-yl)-5-(3-(pyrrolidin-1-ylmethyl)phenyl)-1H-indazole-3-carboxamide] | > 100 | 0.057

— patent publication US10806726B2, “Methods of using indazole-3-carb oxamides and their use as Wnt/B-catenin signaling pathway inhibitors” (Samumed, LLC, priority 2016, dated 2020)
